Assay results: patent publication US6573296B2, “Therapeutic quassinoid preparations with antineoplastic, antiviral, and herbistatic activity” (priority 1997, dated 2003)
Where two headings read alike, the source gives them in different places.

Tests used:
L1210 = assay: soft agar disk diffusion zone of inhibition assay; type: cell-based, mice
C38 = assay: soft agar disk diffusion zone of inhibition assay; type: cell-based, mice
CX-1 = assay: soft agar disk diffusion zone of inhibition assay; type: cell-based, human
Text: (§1) The following human tumors were used: Human adenosquamous lung tumor H-125 (7) and colon tumors H8, HCT-116, and CX-1 were used for in vitro testing only. Each human cell line was maintained in culture until plating was done. HCT-116, H8, and CX-1 were maintained in McCoy's media and heat inactivated fetal bovine serum (11% FBS). It was passaged (1:5 dilution) twice week following enzymatic dissociation using a trypsin/PBS-EDTA mixture. H-125 was maintained in CMRL/Fischer media (1:1) with 11% FBS. It was mechanically dissociated and passaged (3:10 dilution) weekly. For the plating assay, all cells were mechanically dispersed and diluted in the CMRL/Fischer. media mixture.

H8 = assay: soft agar disk diffusion zone of inhibition assay; type: cell-based, human
Text: as §1

[1] = test system: leukemia and solid tumor cells; assay: in vitro differential cytotoxicity, solid tumor versus leukemia; type: cell-based; conditions: for solid tumor selectivity in vitro: solid tumor versus leukemia zones
[2] = test system: colon adenocarcinoma #38 [C38]; assay: in vivo chemotherapy of SC transplanted tumor; set-up: species or system mice; conditions: for Cures / MTD Total Dose: C38; for Cures: IV at MTD, cured/total mice; for MTD Total Dose: IV, days: Glaucarubinone 3,5-10, Holacanthone 3-12, Glaucarubolone 3-6, Chaparrinone 3-9; for in vivo activity against C38, in words: mouse
Text: (§2) Mice. Inbreds mice used were C57B1/6, C3H/He, Balb/c, and DBA/2; hybrids were: B6D2F1 (C57B1/6 females×DBA/2 males), and CD2F1 (Balb/c females×DBA/2 males). All mice were obtained from the Frederick Cancer Research Facility, Frederick, Md.
(§3) Tumors were maintained in the mouse strain of origin and were transplanted into either an appropriate F1 hybrid or the strain of origin for therapy trials. All mice were over 17 g at the start of therapy; the range of individual body weights in each experiment was within 2 g. The mice were supplied food and water ad libitum.
(§4) Antitumor Agents. The compound easily dissolved in the diluent which consisted of 3% [V/V (100%-Pure)] Ethanol, 1% (V/V) polyoxyethylanesorbitan monopalmitate (P.O.E.40) and 96% sterile distilled water. The primary route of administration was intravenous (IV).
(§5) […] Chemotherapy. The methods of protocol design, tumor transplantation, drug treatment, endpoint determination, definition of terms, toxicity evaluation, data analysis, quantification of tumor cell kill, and the biologic significance of the drug treatment results with transplantable tumors have been presented. The following is a brief summary of those methods as they apply to the work described.
(§6) The animals necessary to begin an experiment were pooled, implanted bilaterally SC on day 0 with 30 to 60 mg tumor fragments using a 12 gauge trocar, and again pooled before randomization to the various treatment and control group. Chemotherapy was either started within 3 days after tumor implantation while the number of cells per mouse was relatively small (10^7 to 10^8 cells), or allowed to grow to palpation (about 3×10^8 cells) in a more advanced stage trial.
(§7) Tumors were measured with a caliper either once or twice weekly (as needed) until either tumors exceeded 1500 mg or cure was. assured. Tumor weights were estimated from two-dimensional measurements:
(§8) Tumor Weight (mg)=(a×b^2)/2, where a and b are the tumor length and width (mm) respectively.
(§9) Tumor growth delay. (T-C value), where T is the median time (in days) required for the treatment group tumors to reach a predetermined size, and C is the median time (in days) for the control group tumors to reach the same size. Tumor-free survivors were excluded from these calculations (cures were tabulated separately).
(§10) Calculation of tumor cell kill. For SC growing tumors, the log10 cell kill was calculated from the following formula: [formula]
(§11) Where T-C is the tumor growth delay (in days) as described above and Td is the tumor volume doubling time (in days), the latter estimated from the best fit straight line from a log-linear growth plot of the control-group tumors in exponential growth (500 to 1500 mg range). The conversion of the T-C values of log10 cell kill is possible because the Td for tumors regrowing post-treatment approximated the Td values of the tumors in untreated control mice.
(§12) Determination of activity by tumor growth inhibition (T/C value). Measurements were carried out simultaneously in both the treatment and control groups. When the control group tumors reached approximately 750-1500 mg in size (median of group), the median tumor weight of each group was determined (including zeros).

[3] = test system: mammary adenocarcinoma #16/C [Mamm 16/C]; assay: in vivo chemotherapy of SC transplanted tumor; set-up: species or system mice; conditions: for MTD Total Dose: MAM 16/C, IV days: Glaucarubinone 1-11, Holacanthone 1-9/, Chaparrinone 1-6; for in vivo activity against Mam 16/C, in words: mouse
Text: as §2, §3, §4, §5, §6, §7, §8, §9, §10, §11, §12

[4] = test system: mammary adenocarcinoma 17/A/ADR [Mamm 17/Adr]; assay: in vivo chemotherapy of SC transplanted tumor; set-up: species or system mice
Text: as §2, §3, §4, §5, §6, §7, §8, §9, §10, §11, §12

M17/Adr = conditions: multidrug resistant, p-glycoprotein expressing mammary tumor versus leukemia
human rhinovirus-14 = assay: cytopathic effect of rhinovirus in HeLa cells; type: cell-based; conditions: HeLa cells (Wisconsin strain), visually observed
Protocol: C. HeLa cells (Wisconsin strain, Berlin, Germany) were contacted with human rhinovirus-14. Infected cells (Wisconsin strain) were visually observed. […] HeLa cells were not killed by any compounds used. Cells of other HeLa lines (eg. ATCC CCL2) were killed. Glaucarubolone, simalikalactone D and chaparrinone were tested on cell killing and virus production by primary blood monocytes. All three drugs were tested at five concentrations (0, 10^−9, 10^−8, 10^−7, and 10^−6 M). Drugs were given at different times pre-infection, given at the time of infection, or were administered at different times post-infection.

NADH oxidase = NADH oxidase activity of soybean hypocotyl plasma membrane vesicles; type: biochemical; conditions: Isolated PM vesicles; read-out: ED50, Inhibition of NADH oxidase
soybean hypocotyls = assay: growth of sections cut from dark-grown soybean hypocotyls; conditions: Excised segments of etiolated soybean hypocotyls (18 h)
Tomato plants = assay: growth of plants in peat after treatment; type: in vivo
Protocol: Tomato plants about 3.5 cm high at the time of treatment were grown in peat in a flat of 1.5 inch diameter compartments and were treated with either aqueous simalikalactone (solution QD-1) or aqueous glaucarubolone (solution QD-2) containing 0.1% Triton X-100. The final volume/plant was 10 μ1 for the aqueous solution and 200 µl of the aqueous solution containing Triton X-100. […] With the aqueous treatment, plants also were inhibited but not as markedly as with detergent.

[5] = test system: porcine pseudorabies virus; conditions: rabbit kidney cells, visually monitored
P388 = assay: soft agar disk diffusion zone of inhibition assay; type: cell-based, mice; conditions: 0.25 ug/disk
[6] = test system: pancreatic ductal adenocarcinoma #03 [PO3]; assay: in vivo chemotherapy of SC transplanted tumor; set-up: species or system mice; conditions: for % T/C / Cures / Log Cell Kill / MTD Total Dose: PO3
Text: as §2, §3, §4, §5, §6, §7, §8, §9, §10, §11, §12

MX-1 = assay: soft agar disk diffusion zone of inhibition assay; type: cell-based, human; conditions: dose line (5, 1 or 0.3 ug/disk) not clear
C16 = assay: in vivo chemotherapy of SC transplanted tumor; set-up: species or system mice
Text: as §2, §3, §4, §5, §6, §7, §8, §9, §10, §11, §12

[7] = 5 ug/disk (figure before the colon)
[8] = IV days: Glaucarubinone 4-15, Peninsularinone 3-13
[9] = C16, IV days 3,5,7,9,11,13 (Twice Daily)
[10] = IV days 4,6,8,10,12,14 (Twice Daily)

Compound: CC1=CC(=O)[C@@H](O)[C@]2(C)[C@H]3[C@@]4(O)OC[C@@]35[C@@H](C[C@@H]12)OC(=O)C[C@H]5[C@@H](C)[C@H]4O [Chaparrinone]
- zone of inhibition L1210 (L1210; [7]): 5:200 ZONE UNITS
- zone of inhibition C38 (C38; 5 ug/disk): 920 ZONE UNITS
- zone of inhibition CX-1 (CX-1; 5 ug/disk): 480 ZONE UNITS
- zone of inhibition H8 (H8; 5 ug/disk): 270 ZONE UNITS
- solid tumor selectivity in vitro [1]: demonstrated solid tumor selectivity
- Cures [2]: 3/5
- MTD Total Dose [2]: 232 mg/kg
- in vivo activity against C38, in words [2]: therapeutic activity
- MTD Total Dose [3]: 90 mg/kg
- in vivo activity against Mam 16/C, in words [3]: activity
- % T/C ([4]; MAM 17/AdR, IV days 1-10): 42%
- Cures ([4]; MAM 17/AdR, IV days 1-10): 0/5
- MTD Total Dose ([4]; MAM 17/AdR, IV days 1-10): 260 mg/kg
- in vivo activity against Mam 17/Adr, in words ([4]; mouse, in vivo): activity
- differential / selectivity for M17/Adr (Mam 17/Adr) (M17/Adr): demonstrated selectivity

Compound: CC(=O)O[C@H]1C(=O)O[C@@H]2C[C@H]3C(C)=CC(=O)[C@@H](O)[C@]3(C)[C@H]3[C@@]4(O)OC[C@]32[C@@H]1[C@@H](C)[C@H]4O [Holacanthone]
- zone of inhibition L1210 (L1210; 12 ug/disk): 12:310 ZONE UNITS
- zone of inhibition C38 (C38; 12 ug/disk): 950 ZONE UNITS
- zone of inhibition CX-1 (CX-1; 12 ug/disk): 900 ZONE UNITS
- solid tumor selectivity in vitro [1]: demonstrated solid tumor selectivity
- Cures [2]: 0.5
- MTD Total Dose [2]: 188 mg/kg
- MTD Total Dose [3]: 80 mg/kg
- differential / selectivity for M17/Adr (Mam 17/Adr) (M17/Adr): demonstrated selectivity

Compound: CC[C@@H](C)C(=O)O[C@H]1C(=O)O[C@@H]2C[C@H]3C(C)=CC(=O)[C@@H](O)[C@]3(C)[C@H]3[C@@H](O)[C@H](O)[C@]4(C)OC[C@]32[C@@H]14 [simalikalactone D]
- cytopathic effect of human rhinovirus-14 (human rhinovirus-14): Cytopathic effect was delayed
- EC50 (NADH oxidase): 0.4 µM
- EC50 (soybean hypocotyls; read-out: ED50, Inhibition of 2,4-D (1 μM)-induced growth): 3.5 µM
- EC50 (soybean hypocotyls; read-out: ED50, Inhibition of control growth): 2.5 µM
- effect on tomato plants, in words (Tomato plants; 1:1000 and 1:10,000 dilutions in detergent solution, 30 days after treatment): still inhibited
- effect on tomato plants, in words (Tomato plants; 100 Mm diluted 1:100 in 0.1% Triton X-100): did not grow and eventually died
- cytopathic effect of porcine pseudorabies virus [5]: Inhibitory effect was also observed

Compound: (−)-Peninsularinone
- zone of inhibition L1210 (L1210; 0.25 ug/disk): 0.25:310 ZONE UNITS
- zone of inhibition H8 (H8; 0.25 ug/disk): 510 ZONE UNITS
- zone of inhibition (P388), printed in C38 column (P388): 700 (P388) ZONE UNITS
- % T/C [6, 8]: 3%
- Cures [6, 8]: 0/5
- Log Cell Kill [6, 8]: 2.0
- MTD Total Dose [6, 8]: 4.3 mg/kg
- cytopathic effect of human rhinovirus-14 (human rhinovirus-14): Cytopathic effect was delayed
- cytopathic effect of porcine pseudorabies virus [5]: Inhibitory effect was also observed

Compound: Ailanthinone
- zone of inhibition L1210 (L1210; 2 ug/disk): 2:290 ZONE UNITS
- zone of inhibition C38 (C38; 2 ug/disk): 340 ZONE UNITS
- zone of inhibition CX-1 (CX-1; 2 ug/disk): 300 ZONE UNITS
- solid tumor selectivity in vitro [1]: no solid tumor selectivity

Compound: Glaucarubinone
- zone of inhibition L1210 (L1210; 0.3 ug/disk): 160 ZONE UNITS
- zone of inhibition L1210 (L1210; 1 ug/disk): 300 ZONE UNITS
- zone of inhibition L1210 (L1210; [7]): 600 ZONE UNITS
- zone of inhibition C38 (C38; 0.3 ug/disk): 450 ZONE UNITS
- zone differential between C38 and L1210 (C38; 1 ug/disk): 400 units
- zone of inhibition C38 (C38; 1 ug/disk): 700 ZONE UNITS
- zone of inhibition C38 (C38; 5 ug/disk): 950 ZONE UNITS
- zone of inhibition CX-1 (CX-1; dose line (5, 1 or 0.3 ug/disk) not clear): 400 ZONE UNITS
- zone of inhibition (MX-1), printed in H8 column (MX-1): 600 (MX-1) ZONE UNITS
- zone differential for PO3 ([1]; PO3 versus L1210, compared with 400 units for C38): similar, or greater differential
- solid tumor selectivity in vitro [1]: solid tumor selective
- % T/C (C16; [9]): 42%
- Cures (C16; [9]): 0/5
- MTD Total Dose (C16; [9]): 18 mg/kg
- in vivo activity against Col26, in words (C16; mouse, in vivo): Antitumor activity
- Cures [2]: 1/5
- MTD Total Dose [2]: 9.1 mg/kg
- in vivo activity against C38, in words [2]: curative activity
- MTD Total Dose [3]: 24 mg/kg
- in vivo activity against Mam 16/C, in words [3]: Antitumor activity
- % T/C [6, 10]: 0%
- Cures [6, 10]: 0.6
- Log Cell Kill [6, 10]: 3.1
- MTD Total Dose [6, 10]: 16 mg/kg
- % T/C [6, 8]: 15%
- Cures [6, 8]: 1/6
- Log Cell Kill [6, 8]: 1.5
- MTD Total Dose [6, 8]: 16 mg/kg
- in vivo activity against PO3, in words ([6]; mouse, in vivo): curative activity
- differential / selectivity for M17/Adr (Mam 17/Adr) (M17/Adr): no differential

Compound: quassimarine
- cytopathic effect of human rhinovirus-14 (human rhinovirus-14): Cytopathic effect was delayed
- cytopathic effect of porcine pseudorabies virus [5]: Inhibitory effect was also observed
